The values that follow come from US7514245B2, “Method for producing chiral α-hydroxycarboxylic acids by enzymatic hydrolysis of chiral cyanohydrins” (DSM Fine Chemicals Austria NFG GmbH & Co. KG, priority 2003, dated 2009).

Assay [1] deals with Rhodococcus erythropolis NCIMB 11540 cells. In words: Enzymatic hydrolysis at different temperatures, Experiment 6.1. The note with it: after 2 h, 10 g/l, 5% DMSO. The format is cell-based. The method, then: In Experiment 6.1, the course of the reaction was compared at reaction temperatures of 30° C., 35° C. and 40° C. The batches were carried out on a 5 ml scale using a substrate concentration of 10 g/l of (R)-2-chloromandelonitrile. After complete reaction, the ee of the product was determined.
The biocatalyst was produced according to Example 4, Experiment 4.2 (OD546 8.4). In each case 4.75 ml of the cell suspension (resting cells, OD546 52) were used for the enzymatic reactions. Reactions of 50 mg of (R)-2-chloromandelonitrile (>99%) ([S]=60 mM, 10 g/l), dissolved in 250 μl of DMSO (5%) were carried out at 3 different temperatures (30° C., 35° C., 40° C.) in culture tubes at 150 rpm (parallel batches).
(§1) To monitor the conversion rate by means of HPLC, in each case 200 μl of sample were admixed with 200 μl of 1N HCl, centrifuged (5 min, 13 000 rpm) and diluted before measurement. After complete reaction, the ee of the product was determined.

The test system is the same in assay [2]. In words: Enzymatic hydrolysis at different substrate concentrations, Experiment 4.2. The format is cell-based. To be noted: 5% DMSO, 30° C., resting cells. Here is the method: In experiment 4.2, the reaction was carried out using 2 different substrate concentrations (10 g/l, 20 g/l) on a 5 ml scale.
The biocatalyst was produced according to Example 1, Variant II, 2 l fermentation medium, harvest after 19 hours (OD546 8.4). The cells were resuspended in approximately 140 ml of buffer (resting cells, OD546 52). In each case 4.75 ml of this cell suspension were used for the enzymatic reactions.
Two different concentrations of (R)-2-chloromandelonitrile were studied in parallel batches. The reaction was started by adding 250 μl of substrate solution and was carried out in culture tubes in the shaking cabinet at 30° C. and 130 rpm. To monitor the conversion rate, in each case 200 μl were withdrawn and admixed with 200 μl of 1N HCl. After centrifugation (5 min, 13 000 rpm) and dilution, the conversion rates were determined by HPLC. • a. 50 mg of (R)-2-chloromandelonitrile, dissolved in 250 μl of DMSO ([S]=60 mM, 10 g/l, cosolvent: 5% DMSO)

Assay [3] has the same test system. Put plainly: Enzymatic hydrolysis at different substrate concentrations, Experiment 4.3. The format is cell-based. To be noted: after 2 h, 3% DMSO, 40° C., resting cells. The method, then: In experiment 4.3, reactions were carried out using 10 g/l and 15 g/l of (R)-2-chloromandelonitrile. In addition, after complete conversion, the ee of the hydroxy acid formed was determined.
The biocatalyst was produced according to Example 1, Variant II, 2.75 l of the fermentation medium, harvest after 20 hours. The cells were resuspended in approximately 200 ml of buffer (resting cells, OD546 44). In each case 4.85 ml of this cell suspension were used for the enzymatic reactions.
Two different concentrations of (R)-2-chloromandelonitrile were studied in parallel batches. The reaction was started by adding 150 μl of substrate solution and was carried out in culture tubes in the shaking cabinet at 40° C. and 150 rpm. The conversion rate was monitored by means of HPLC. At complete conversion, the hydroxy acid was extracted after acidification and the ee was determined. • a. 50 mg of (R)-2-chloromandelonitrile, dissolved in 150 μl of DMSO ([S]=60 mM, 10 g/l, cosolvent: 3% DMSO)

For assay [4] the test system is unchanged. Put plainly: Enzymatic hydrolysis using resting cells and lyophilized cells (Example 3). The format is cell-based. To be noted: approximately 20 mM substrate, 30° C. The method, then:
The biocatalyst was produced in a similar manner to Example 1, Variant I, 2 culture flasks. After 20 hours (OD546=3.5 and 1.8), cells were centrifuged off from 4 times 10 ml aliquots of fermentation broth and washed once with K/Na—PO4 buffer (pH 6.5, 50 mM). Two of the cell samples were lyophilized before activity determination, and the other two were used as resting cells.
The cells were resuspended in 1.8 ml K/Na—PO4 buffer (pH 6.5, 50 mM) (lyophilized cells were shaken for 1 h for rehydration). The reaction was started by adding 200 μl of a 200 mM substrate solution in DMSO (substrate concentration approximately 20 mM) and carried out at 30° C. and 130 rpm in the shaking cabinet. After 30 min, 60 min and 17 h, 200 μl were withdrawn and admixed with 200 μl of 1N HCl. After centrifugation (5 min, 13 000 rpm) and dilution, the conversion rates were determined by means of HPLC. Only the substrate and the two products were taken into consideration in this. The substrate used was (R)-2-chloromandelonitrile (ee>99%). The results are shown in Tab. 3.

The test system is the same in assay [5]. In words: Enzymatic hydrolysis using different cosolvents, Experiment 5.2. To be noted: 10 g/l, 30° C. The format is cell-based. Here is the method: Here, the solvents DMSO, EtOH and ^iPrOH were again used at a fraction of 5%; the substrate concentration was 10 g/l of (R)-2-chloromandelonitrile. The reaction was carried out on a 5 ml scale.
Production of the biocatalyst Example 4, Experiment 4.2 (OD546 8.4). In each case 4.75 ml of the cell suspension (resting cells, OD546 52) were used for the enzymatic reactions. Reactions of (R)-2-chloromandelonitrile (>99%) dissolved in DMSO, EtOH and i-PrOH were carried out in culture tubes at 150 rpm and 30° C. (parallel batches).
To monitor the conversion rate by means of HPLC, in each case 200 μl of sample were admixed with 200 μl of 1N HCl, centrifuged (5 min, 13 000 rpm) and diluted before measurement. After complete conversion, the ee of the product was determined. • a. 50 mg of (R)-2-chloromandelonitrile, dissolved in 250 μl of DMSO ([S]=60 mM, 10 g/l, cosolvent: 5% DMSO)

The test system is the same in assay [6]. In words: Enzymatic hydrolysis at different temperatures, Experiment 6.2. The format is cell-based. The note with it: after 2 h, 10 g/l, 3% DMSO. The method, then:
In Experiment 6.2, the temperature was increased to 50° C.
The biocatalyst was produced according to Example 4, Experiment 4.3 (OD546 44). In each case 4.85 ml of the cell suspension (resting cells, OD546 44) were used for the enzymatic reactions. Reactions of 50 mg of (R)-2-chloromandelonitrile (>99%) ([S]=60 mM, 10 g/l), dissolved in 150 μl DMSO (3%) were carried out at 3 different temperatures (30° C., 40° C., 50° C.) in culture tubes at 150 rpm (parallel batches).
as §1

Assay [7] has as its target T1, Rhodococcus erythropolis NCIMB 11540 nitrile hydratase (Rhodococcus erythropolis, UniProt P13448+P13449).
T1 construct: made in house; host or cells: E. coli B BL21 (plasmid pMS470Nhase7.3 or pMSNhasetactac7.3), crude lysate
T1 sequence (P13448 1-207): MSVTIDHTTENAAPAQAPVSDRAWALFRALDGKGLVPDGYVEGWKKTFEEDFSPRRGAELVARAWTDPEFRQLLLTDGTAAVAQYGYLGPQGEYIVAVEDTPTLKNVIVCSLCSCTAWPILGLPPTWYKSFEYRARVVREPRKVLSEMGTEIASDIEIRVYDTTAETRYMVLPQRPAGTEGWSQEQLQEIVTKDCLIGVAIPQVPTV
T1 sequence (P13449 1-212): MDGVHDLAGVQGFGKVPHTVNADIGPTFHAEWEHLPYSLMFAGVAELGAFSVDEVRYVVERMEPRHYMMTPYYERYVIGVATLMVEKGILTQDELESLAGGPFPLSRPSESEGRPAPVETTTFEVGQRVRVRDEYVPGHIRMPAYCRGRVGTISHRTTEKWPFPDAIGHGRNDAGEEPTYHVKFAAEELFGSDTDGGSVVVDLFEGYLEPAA
In words: Nitrile hydratase activity determination of crude lysates with methacrylonitrile. The note with it: 40 mM methacrylonitrile in PBS, 28° C. The format is biochemical. Here is the method:
The E. coli B BL21 cells transformed by pMS470Nhase7.3 (or pMSNhasetactac7.3) were isolated on LB-ampicillin plates and an ONC of 100 ml of LB-ampicillin medium was inoculated with an individual colony. On the next morning a main culture consisting of 250 ml of LB-ampicillin medium was inoculated in a 1000 ml chicane flask to an OD600 of 0.01 to 0.03 (Beckmann Photometer). The growth temperature was controlled at 25° C., since at higher temperatures insoluble inclusion bodies are formed exclusively. After the induction density was reached (OD600=1 Beckmann Photometer), the cultures were induced by adding IPTG to give a concentration of 0.1 mM. In addition, the media were supplemented with 0.1 mM ammonium iron(III) citrate. After reaching an OD600>4, the cultures were harvested (centrifugation at approximately 3000-g for 15 min) and washed once with approximately 100 ml of PBS buffer. […]
Activity determination: crude lysates were diluted 1:10 with PBS buffer immediately before activity determination. […] After centrifugation (16 000·g, 10 minutes), the samples were analyzed spectrophotometrically at 224 nm (Perkin Elmer UV/VIS Spectrometer Lambda Bio). […]

[8] abbreviates: lyophilized cells (19 mg/ml), 30 min.
The mark [9] stands for this setting: lyophilized cells (19 mg/ml), 60 min.
[10] abbreviates: lyophilized cells (19 mg/ml), 17 h.
Setting [11] is: resting cells, 30 min, culture 1 (OD546 3.5).

In the case of `N#C[C@H](O)c1ccccc1Cl` [(R)-2-chloromandelonitrile], the hydroxy acid formed is 42% in assay [1] (T=30° C.); 65% in assay [1] (T=35° C.); 86% in assay [1] (T=40° C.); “approximately 40%” in assay [2] (after 2 h, 10 g/l (60 mM)); 36% in assay [2] (after 18 h, 20 g/l (120 mM)); 41% in assay [2] (after 43 h, 20 g/l (120 mM)). Besides, the hydroxy acid formed in assay [3] (10 g/l (60 mM)) was 80%; in assay [3] (15 g/l (90 mM)), “approximately 60%”; in assay [5] (after 2 h, cosolvent 5% DMSO) it was “approximately 40%”; in assay [5] (after 3 h, cosolvent 5% EtOH), 35%; in assay [5] (after 3 h, cosolvent 5% i-PrOH) it was 8%; in assay [5] (after 44 h, cosolvent 5% i-PrOH), 64%. Moreover, the values for the hydroxy acid formed in assay [6] (T=30° C.), in assay [6] (T=40° C.) and in assay [6] (T=50° C.) were 42%, 80% and 92%, respectively. Moreover, the “Conversion rate CH (cyanohydrin)” value in assay [4] (setting [8]) is reported as 40%; in assay [4] (setting [9]) it was 41%; in assay [4] (setting [10]) it was 43%; in assay [4] (setting [11]) it was 100%. Further, the “Conversion rate HA (hydroxyamide)” value in assay [4] (setting [8]) was under 1%; in assay [4] (setting [9]) it was 0%; in assay [4] (setting [10]), under 1%; in assay [4] (setting [11]) it was 2%; in assay [4] (resting cells, 60 min, culture 1 (OD546 3.5)), 4%; in assay [4] (resting cells, 17 h, culture 1 (OD546 3.5)), 42%. Further, the “hydrolysis to form the hydroxy acid complete” value in assay [5] (after 19 h, cosolvent 5% EtOH) is on record as 94%.
For `C=C(C)C#N` [methacrylonitrile], the “typical activity of crude lysates” value is 100-250 U/ml in assay [7] (pMS470Nhase7.3 lysate) and 350-500 U/ml in assay [7] (pMSNhasetactac7.3 lysate).
